Results published in article PMC10609944, “Development of a Dosage form for a Photoswitchable Local Anesthetic Ethercaine” (Pharmaceuticals, 2023).
Values after ≈ are worked out from the molar mass of the structure shown. Structures can show the parent of a compound that is named as a salt. Where two headings read alike, the source gives them in different places. Marks after values point to notes of the source that are not given here.

Columns and labels:
[1] = system: rabbit eye cornea; set-up: method as in PMID 35628162; conditions: n = 8, cited from earlier work
[2] = Solubilization of ethercaine: maximum solubility; type: physicochemical
From the text: Since ETH itself, as a free base, is virtually insoluble in water and only partially soluble in 4% solution of Kolliphor ELP, at the first stage it was decided to study the effects of increasing the concentration of Kolliphor ELP and replacing it with Pluronic F127. Pluronic F127 is also an FDA-approved solubilizer of a different nature to the Kolliphor ELP, so it was selected as an alternative solubilizer for the study. Both substances are surfactants capable of forming direct micelles in aqueous solutions for loading hydrophobic compounds that are sparingly soluble in water. We chose a 4% concentration of Kolliphor ELP as the initial concentration that is suitable for the solubilization of hydrophobic dyes but is safe for clinical use, including for intravenous administration. In the case of other administration routes, for example, for ophthalmic use, this concentration can be increased. For further studies, we chose a 10% concentration of Kolliphor ELP. Despite an almost two-fold increase in the maximum solubility of ETH (Table 1) with an increase in the concentration of Kolliphor ELP from 4% to 10%, data on biological activity indicated an unstable and undulating local anesthetic effect on the cornea of the rabbit eye according to the Regnier method, which appeared to be due to the delayed drug release at high surfactant concentrations.
At the next stage of the solubility study, micelle-forming solubilizers and an anesthetic in the form of the ETH·HCl salt were used.
A solution of 4-(2-(N-morpholino)-ethoxy)-azobenzene hydrochloride (2) (50.0 mg) in dichloromethane (2 mL) was added dropwise to a freshly prepared 4% aqueous solution of solubilizer (Kolliphor® ELP or Pluronic F127) (5 mL) heated to 45 °C with continuous argon bubbling. Bubbling was continued until strong foaming started. A clear orange solution with a concentration of 1.0% was obtained, which was subsequently filtered in turn through 0.45 µm PTFE filter and then through 0.22 µm PTFE filter.

[3] = set-up: method as in PMID 35628162; conditions: in 4% Kolliphor ELP; cited from earlier work
[4] = Spectrophotometric determination of Z→E half-transformation time (t1/2) in solutions; type: physicochemical; conditions: after 365 nm irradiation, thermal back Z→E, room temperature
Procedure: This parameter depends on a number of conditions, including the solvent; therefore, at the next stage, the effect of the solubilizer on the t1/2 value was examined. The study was carried out by a standard method using UV/Vis spectrophotometry. At the beginning of the experiment, the spectrum of the initial photostationary state (PSS) with predominance of the E-form was recorded, after which the solution was irradiated with UV light (λ = 365 nm) and the spectrum of the resulting PSS, with predominance of the Z-form, was recorded.
Next, the rate of reverse isomerization was monitored by measuring the absorption intensity at 5 min intervals. […]
UV/Vis spectroscopy was used for the time determination of Z-isomers’ half-lifes. […] Then, lnAt/A0 values were calculated using Equation (1):(1) lnAt/A0=lnAbsPSS(dark)−Abstime/AbsPSS(dark)−AbsPSS(365nm), where AbsPSS(dark) , AbsPSS(365nm), and Abstime are absorbance values at λmax(E) in the dark at the beginning of the experiment, after UV light (λ = 365 nm) irradiation and at different time points from 0 to 60 min, respectively. Then, a graph was plotted depending on the lnAt/A0 values from the time, a trend line was calculated and a first-order rate constant (k) for the thermal back Z–E isomerization reaction was obtained as the slope of the trend line. […]

[5] = system: rabbit eye cornea; test: Local anesthetic activity, surface anesthesia on rabbit eye cornea, Regnier method; conditions: solutions irradiated with UV light λ = 365 nm vs dark
From the text: The essence of the method is to estimate the number of eye closures during the tactile exposure of the cornea of a rabbit’s eye. According to the method, four animals (eight experimental points) were selected for each group, except two groups with a negative control. For the latter two animals (four experimental points) were used due to the lack of the activity and to minimize the number of animals in the experiment. The animals were randomly divided into four experimental (1% ETH·HCl in 4% Kolliphor ELP or in 4% Pluronic F127, two modes with and without UV irradiation) and four control groups (4% Kolliphor ELP or 4% Pluronic F127, two modes with and without UV irradiation).
For determination of the sensitivity of rabbit eye cornea using the surface anesthesia method, a total of four rabbits with a basic sensitivity threshold of 1–2 touches were selected. […]
Before the experiment began, the animal was restrained, leaving only its head free. The eyelashes were cut and the sensitivity threshold was determined for each eye. […] After that, the sensitivity threshold of the eye cornea to tactile impact was determined. […] Each time, tactile stimulation of the same strength and rhythm was applied to the cornea and the minimum number of touches causing the eyelids to close (but no more than 100 touches and no longer than for 1 min) was recorded.

[6] = aqueous micellar solution of Kolliphor ELP, aqueous with cosolvent or surfactant or cyclodextrin, 4% micellar solution of Kolliphor ELP, read-out: Maximum Solubility of Ethercaine
[7] = aqueous micellar solution of Pluronic F127, aqueous with cosolvent or surfactant or cyclodextrin, 4% micellar solution of Pluronic F127, read-out: Maximum Solubility of Ethercaine
[8] = water without excipients, water, no excipients, read-out: Maximum Solubility of Ethercaine

solubility [2, 6] [µg/mL] | solubility ([2]; aqueous micellar solution of Kolliphor ELP, aqueous with cosolvent or surfactant or cyclodextrin, 10% micellar solution of Kolliphor ELP, read-out: Maximum Solubility of Ethercaine) [µg/mL] | solubility [2, 7] [µg/mL] | solubility ([2]; before development of the dosage form) [%] | solubility of the anesthetic in water ([2]; before the hydrochloride micellar dosage forms) [wt.%] | solubility ([2]; developed dosage form) [%] | solubility of the anesthetic in water ([2]; dosage forms based on micellar solutions of Kolliphor ELP and Pluronic F127) [wt.%] | solubility [2, 8] [µg/mL] | solubility ([2]; aqueous micellar solution of Kolliphor ELP, 4% micellar solution of Kolliphor ELP, read-out: Maximum Solubility of Ethercaine) [µg/mL] | solubility ([2]; aqueous micellar solution of Pluronic F127, 4% micellar solution of Pluronic F127, read-out: Maximum Solubility of Ethercaine) [µg/mL] | Half-Transformation Time (t1/2) ([4]; 4% micellar solution of Kolliphor ELP) [min] | Half-Transformation Time (t1/2) ([4]; 4% micellar solution of Pluronic F127) [min] | Structure (SMILES) | Regnier Index (Min—13, Max—1300) ([1]; Dark) | Regnier Index (Min—13, Max—1300) ([1]; UV λ = 365 nm) | maximum concentration such that the solution remained stable [3] [wt.%] | decrease in the local anesthetic effect on UV irradiation (factor) [5]
 |  |  |  |  |  |  |  |  |  |  |  | CCN(CC)CC(=O)Nc1c(C)cccc1C [2% lidocaine hydrochloride, lidocaine hydrochloride] | 451 ± 40 (n = 8) ^a | 469 ± 37 (n = 8) ^a |  | 
6000 (≈ 19.3 mM) | 10000 (≈ 32.1 mM) | 7000 (≈ 22.5 mM) | 0.6 | 0.6 | ≥ 2 | ≥ 2 | < 1000 |  |  |  |  | c1ccc(N=Nc2ccc(OCCN3CCOCC3)cc2)cc1 [ETH, 4-(2-(N-Morpholino)-ethoxy)-azobenzene] |  |  | 0.6 | 
> 20000 |  | > 20000 |  |  |  |  | 6000 | ≥ 20000 | ≥ 20000 | 51 | 69 | c1ccc(/N=N/c2ccc(OCCN3CCOCC3)cc2)cc1 [ETH·HCl, 4-(2-(N-Morpholino)-Ethoxy)-Azobenzene Hydrochloride] |  |  |  | 16–20
